According to US7109193B2, “Tricyclic diazepines tocolytic oxytocin receptor antagonists” (Wyeth, priority 2001, dated 2006):

Target: T1, human vasopressin V2 receptor subtype (Homo sapiens, UniProt P30518)
T1 construct: host or cells: CHO cells (pZeoSV vector)
Experiment: Vasopressin binding in Chinese Hamster Ovary cell membranes expressing human vasopressin V2 subtype receptors
Details: 100 nM, CHO cell membranes, [3H]arginine vasopressin, values without parentheses
Outline: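 Radioligand displacement on membranes from CHO cells stably expressing human V2 receptor, 25 to 50 μg protein/well, in 50 mM Tris-HCl pH 7.4 with MgCl2, BSA and protease inhibitors. [^3H]arginine vasopressin (8 nM working solution) incubated 60 min at room temperature; bound label measured by filtration and scintillation counting.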

T1 sequence (P30518 whole entry): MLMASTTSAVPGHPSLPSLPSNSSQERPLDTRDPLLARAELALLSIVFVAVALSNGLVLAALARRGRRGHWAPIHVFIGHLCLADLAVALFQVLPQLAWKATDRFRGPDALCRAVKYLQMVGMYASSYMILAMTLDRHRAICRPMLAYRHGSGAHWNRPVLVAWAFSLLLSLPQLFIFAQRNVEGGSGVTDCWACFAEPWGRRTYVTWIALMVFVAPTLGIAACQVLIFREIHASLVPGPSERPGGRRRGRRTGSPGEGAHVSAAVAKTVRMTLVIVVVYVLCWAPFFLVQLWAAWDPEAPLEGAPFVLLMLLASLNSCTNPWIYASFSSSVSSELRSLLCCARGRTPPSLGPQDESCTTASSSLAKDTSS

Row | Structure (SMILES) | V2 % inhibition @ 100 nM [%] | inhibition at 0.1 µM [%]
1 | Cc1cc(C(=O)N2Cc3ccc(C(=O)NCCCN(C)C)n3Cc3ccccc32)ccc1-c1ccccc1C(F)(F)F [Example 84, N-[3-(Dimethylamino)propyl]-10-{[2-methyl-2′-(trifluoromethyl)[1,1′-biphenyl]-4-yl]carbonyl}-10,11-dihydro-5H-pyrrolo[2,1-c][1 .4]benzodiazepine-3-carboxamide] | 11 | –
2 | Cc1cc(C(=O)N2Cc3ccc(C(=O)N4CCC(N5CCCCC5)CC4)n3Cc3ccccc32)ccc1-c1ccccc1C(F)(F)F [Example 122, {10-[(2-Methyl-2′-(trifluoromethyl) -[1,1′-biphenyl]-4-yl)carbonyl]-10,11-dihydro-5H -pyrrolo[2,1-c][1,4]benzodiazepin-3-yl}[4-(1-piperidinyl)-1-piperidinyl]methanone] | – | 8
3 | COc1cccc(-c2ccc(C(=O)N3Cc4ccc(C(=O)N(C)CCCN(C)C)n4Cc4ccccc43)cc2OC)c1 [Example 108, 10-[(2,3′-Dimethoxy[1,1′-biphenyl]-4-yl)carbonyl]-N-[3-(dimethylamino)propyl]-N-methyl-10,11-dihydro-5H-pyrrolo[2,1-c][1,4]benzodiazepine-3-carboxamide] | – | 8
4 | COc1cccc(-c2cc(OC)c(C(=O)N3Cc4ccc(C(=O)N5CCN(CCN6CCOCC6)CC5)n4Cc4ccccc43)cc2Cl)c1 [Example 212, {10-[(6-Chloro-3,3′-dimethoxy[1,1′-biphenyl]-4-yl)carbonyl]-10,11-dihydro-5H-pyrrolo[2,1-c][1,4]benzodiazepin-3-yl}{4-[2-(4-morpholinyl)ethyl]-1-piperazinyi}methanone] | 43 | –
5 | Cc1ccccc1-c1ccc(C(=O)N2Cc3ccc(C(=O)N4CCC[C@H]4CN4CCCC4)n3Cc3ccccc32)cc1 [Example 264, {10-[(2′-Methyl[1,1′-biphenyl]-4-yl)carbonyl]-10,11-dihydro-5H-pyrrolo[2,1-c][1,4]benzodiazepin-3-yl}[(2S)-2-(1-pyrrolidinylmethyl)pyrrolidinyl]methanone] | 12 | –
6 | COc1cccc(-c2cc(OC)c(C(=O)N3Cc4ccc(C(=O)NCCCn5ccnc5)n4Cc4ccccc43)cc2Cl)c1 [Example 130, 10-[(6-Chloro-3,3′-dimethoxy[1,1′-biphenyl]-4-yl)carbonyl]-N-[3-(1H-imidazol-1-yl)propyl]-10,11-dihydro-5H-pyrrolo[2,1-c][1,4]benzodiazepine-3-carboxamide] | – | 5
7 | COc1ccccc1-c1ccc(C(=O)N2Cc3ccc(C(=O)N4CC[C@@H](N(C)C)C4)n3Cc3ccccc32)cc1 [Example 279, [(3R)-3-(Dimethylamino)pyrrolidinyl]{10-[(2′-methoxy[1,1′-biphenyl]-4-yl)carbonyl]-10,11-dihydro-5H-pyrrolo[2,1-c][1,4]benzodiazepin-3-yl}methanone] | 17 | –
8 | COc1cccc(-c2cc(OC)c(C(=O)N3Cc4ccc(C(=O)N5CC[C@@H](N(C)C)C5)n4Cc4ccccc43)cc2Cl)c1 [Example 275, {10-[(6-Chloro-3,3′-dimethoxy[1,1′-biphenyl]-4-yl)carbonyl]-10,11-dihydro-5H-pyrrolo[2,1-c][1,4]benzodiazepin-3-yl}[(3R)-3-(dimethylamino)pyrrolidinyl]methanone] | 21 | –
